This is an account of results in US12258329B2 (Merck Sharp & Dohme LLC, priority 2018, dated 2025).

The test system of one test is infected PBMCs (VSV-G pseudotyped HIV virus VSV-G/pNLG1-P2A-ΔEnv). Nature of the test: cells. Type of test: cell-based, human. The note with it: Homo sapiens, PBMC, read-out: TACK EC50.
Usually EC50 stands for the concentration needed to bring the measured effect to its halfway point. With `Cc1nc(CCCO)[nH]c(=O)c1Cn1cnc(C(F)(F)C(F)F)c(Oc2cc(C(F)F)cc(C#N)c2C)c1=O` [Example 49, 5-(difluoromethyl)-3-((1-((2-(3-hydroxypropyl)-4-methyl-6-oxo-1,6-dihydropyrimidin-5-yl)methyl)-6-oxo-4-(1,1,2,2-tetrafluoroethyl)-1,6-dihydropyrimidin-5-yl)oxy)-2-methylbenzonitrile], the concentration for a half-maximal effect (EC50) amounted to 278 nM.

As for `Cc1nc(CO)[nH]c(=O)c1Cn1cnc(C(F)(F)C(F)F)c(Oc2cc(Cl)cc(C#N)c2F)c1=O` [Example 45, 5-chloro-2-fluoro-3-((1-((2-(hydroxymethyl)-4-methyl-6-oxo-1,6-dihydropyrimidin-5-yl)methyl)-6-oxo-4-(1,1,2,2-tetrafluoroethyl)-1,6-dihydropyrimidin-5-yl)oxy)benzonitrile], the concentration for a half-maximal effect (EC50) stood at 257 nM.

For the compound `Cc1nc(C)c(Cn2cnc(C(F)(F)F)c(Oc3cc(Cl)cc(C#N)c3F)c2=O)c(=O)[nH]1` [Example 92, 5-chloro-3-((1-((2,4-dimethyl-6-oxo-1,6-dihydropyrimidin-5-yl)methyl)-6-oxo-4-(trifluoromethyl)-1,6-dihydropyrimidin-5-yl)oxy)-2-fluorobenzonitrile], the EC50 worked out at 284 nM.

On to `Cc1nc(C)c(Cn2cnc(C(F)(F)F)c(Oc3c(C)cc(C#N)cc3C)c2=O)c(=O)[nH]1` [Example 77, 4-((1-((2,4-dimethyl-6-oxo-1,6-dihydropyrimidin-5-yl)methyl)-6-oxo-4-(trifluoromethyl)-1,6-dihydropyrimidin-5-yl)oxy)-3,5-dimethylbenzonitrile], for which the EC50 came out at 409 nM.

Turning to `Cc1nc(C)c(Cn2cnc(C(F)(F)C(F)(F)F)c(Oc3c(C)cc(C#N)cc3Cl)c2=O)c(=O)[nH]1` [Example 95, 3-chloro-4-((1-((2,4-dimethyl-6-oxo-1,6-dihydropyrimidin-5-yl)methyl)-6-oxo-4-(perfluoroethyl)-1,6-dihydropyrimidin-5-yl)oxy)-5-methylbenzonitrile], the EC50 came to 179 nM.

For `Cc1nc(C(C)O)[nH]c(=O)c1Cn1cnc(C(F)(F)C(F)F)c(Oc2cc(C(F)F)cc(C#N)c2C)c1=O` (single isomer, unassigned) [Example 53, 5-(difluoromethyl)-3-((1-((2-(1-hydroxyethyl)-4-methyl-6-oxo-1,6-dihydropyrimidin-5-yl)methyl)-6-oxo-4-(1,1,2,2-tetrafluoroethyl)-1,6-dihydropyrimidin-5-yl)oxy)-2-methylbenzonitrile], the concentration giving a half-maximal response (EC50) was determined as 392 nM.

As to `Cc1nc(C)c(Cn2cnc(C(F)(F)C(F)(F)F)c(Oc3c(F)ccc(C#N)c3F)c2=O)c(=O)[nH]1` [Example 71, 3-((1-((2,4-dimethyl-6-oxo-1,6-dihydropyrimidin-5-yl)methyl)-6-oxo-4-(perfluoroethyl)-1,6-dihydropyrimidin-5-yl)oxy)-2,4-difluorobenzonitrile], the concentration giving a half-maximal response (EC50) is 149 nM.

As to `Cc1ncc(Cn2cnc(C(F)(F)C(F)F)c(Oc3cc(C(F)F)cc(C#N)c3C)c2=O)c(=O)[nH]1` [Example 70, 5-(difluoromethyl)-2-methyl-3-((1-((2-methyl-6-oxo-1,6-dihydropyrimidin-5-yl)methyl)-6-oxo-4-(1,1,2,2-tetra-fluoroethyl)-1,6-dihydropyrimidin-5-yl)oxy)benzonitrile], the EC50 was found to be 203 nM.

On to `Cc1nc(C)c(Cn2cnc(C(F)(F)C(F)(F)F)c(Oc3cc(Cl)cc(C#N)c3C)c2=O)c(=O)[nH]1` [Example 72, 5-chloro-3-((1-((2,4-dimethyl-6-oxo-1,6-dihydropyrimidin-5-yl)methyl)-6-oxo-4-(perfluoroethyl)-1,6-dihydro-pyrimidin-5-yl)oxy)-2-methylbenzonitrile], for which the concentration giving a half-maximal response (EC50) came to 377 nM.

Regarding `Cc1nc(C)c(Cn2cnc(C(F)(F)C(F)(F)F)c(Oc3cc(C(F)F)cc(C#N)c3C)c2=O)c(=O)[nH]1` [Example 83], the EC50 stood at 252 nM.

The same test, now with this note: read-out: TACK EC50.
Consider `COc1c(C#N)cc(C(F)F)cc1Oc1c(C(C)F)ncn(Cc2c(C)nc(C)[nH]c2=O)c1=O` (single isomer, unassigned) [Example 36], for which the EC50 was 72.3 nM.
